Experimental data published in ChEMBL document CHEMBL1134456, “Design, synthesis and pharmacological characterization of a potent radioiodinated and photoactivatable peptidic oxytocin antagonist” (J Med Chem, 2001).
Starred links: 1 amine or outer side, 2 acyl side, 3 side chain; linkers in the order of their positions; H or OH if unused. Positions of bridges follow the written chain, without caps; N, C: chain ends. Non-standard residues stand in square brackets, D forms with d. Residues, ends and D or L forms follow the SMILES beside them. X1 = [N-]=[N+]=Nc1ccc(C[C@H](N[*:1])C(=O)[*:2])cc1I; X2 = O=C(CC1(S[*:2])CCCCC1)[*:1]; Orn = NCCC[C@H](N)C(=O)O

Experiments:
Oxytocin receptor [1] = molecular target: T1, Oxytocin receptor (Homo sapiens, UniProt P30559); experiment: Binding affinity towards OT receptor in CHO cells expressing the human OT receptor; type: cell-based
T1 sequence (P30559 whole entry): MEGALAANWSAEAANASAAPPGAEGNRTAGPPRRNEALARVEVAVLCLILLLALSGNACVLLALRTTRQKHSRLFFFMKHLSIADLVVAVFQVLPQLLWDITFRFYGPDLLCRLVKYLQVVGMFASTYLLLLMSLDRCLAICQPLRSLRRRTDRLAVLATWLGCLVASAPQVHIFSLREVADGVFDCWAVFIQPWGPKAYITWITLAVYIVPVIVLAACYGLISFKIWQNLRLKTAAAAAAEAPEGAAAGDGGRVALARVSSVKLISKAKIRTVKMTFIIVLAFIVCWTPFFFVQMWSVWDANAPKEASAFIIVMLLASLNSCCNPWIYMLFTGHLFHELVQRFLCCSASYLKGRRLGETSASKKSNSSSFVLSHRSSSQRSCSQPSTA

Oxytocin receptor [2] = molecular target: T1, Oxytocin receptor; experiment: Dissociation constant value for human OT-receptor
Oxytocin receptor [3] = molecular target: T1, Oxytocin receptor; experiment: Ability to inhibit OT-induced inositol phosphate accumulation was determined in CHO cells expressing the human OT receptor; type: functional, cell-based

SMILES	Ki (Oxytocin receptor [1]; cho) [nM]	Kd (Oxytocin receptor [2]) [nM]	IC50 (Oxytocin receptor [3]) [nM]	Ki (Oxytocin receptor [1]) [nM]
CC[C@H](C)[C@@H]1NC(=O)[C@H](Cc2ccc(OC)cc2)NC(=O)CC2(CCCCC2)SSC[C@@H](C(=O)NCC(=O)N[C@@H](CCCN)C(=O)N[C@@H](Cc2ccc(N=[N+]=[N-])c(I)c2)C(N)=O)NC(=O)[C@H](CC(N)=O)NC(=O)[C@H]([C@@H](C)O)NC1=O (Y(Me)ITNCG[Orn][X1]-NH2; linker N-5 via X2)	2.3			
CC[C@H](C)[C@@H]1NC(=O)[C@H](Cc2ccc(OC)cc2)NC(=O)CC2(CCCCC2)SSC[C@@H](C(=O)N2CCC[C@H]2C(=O)N[C@@H](CCCN)C(=O)N[C@@H](Cc2ccc(N=[N+]=[N-])c(I)c2)C(N)=O)NC(=O)[C@H](CC(N)=O)NC(=O)[C@H]([C@@H](C)O)NC1=O (Y(Me)ITNCP[Orn][X1]-NH2; linker N-5 via X2)	0.3	0.25	0.32	
CC[C@H](C)[C@@H]1NC(=O)[C@H](Cc2ccc(O)cc2)NC(=O)CC2(CCCCC2)SSC[C@@H](C(=O)NCC(=O)N[C@@H](CCCN)C(=O)N[C@@H](Cc2ccc(N=[N+]=[N-])c(I)c2)C(N)=O)NC(=O)[C@H](CC(N)=O)NC(=O)[C@H]([C@@H](C)O)NC1=O (YITNCG[Orn][X1]-NH2; linker N-5 via X2)	18			
CC[C@H](C)[C@@H]1NC(=O)[C@H](Cc2ccc(O)cc2)NC(=O)CC2(CCCCC2)SSC[C@@H](C(=O)N2CCC[C@H]2C(=O)N[C@@H](CCCN)C(=O)N[C@@H](Cc2ccc(N=[N+]=[N-])c(I)c2)C(N)=O)NC(=O)[C@H](CC(N)=O)NC(=O)[C@H]([C@@H](C)O)NC1=O (YITNCP[Orn][X1]-NH2; linker N-5 via X2)				0.6
